# Test results taken from the PolyMetriX glass transition set.
# ± gives the standard deviation of the reports.
row,Structure (SMILES),glass transition temperature
1,*CC(*)(CC(=O)OCCCCCC)C(=O)OCCCCCC (repeat unit),-7.00 °C
2,*c1ccc(Oc2ccc(P(=O)(c3ccccc3)c3ccc(Oc4ccc(-c5cc(*)n(-c6ccccc6)n5)cc4)cc3)cc2)cc1 (repeat unit),239.00 °C
3,*CCCOC(=O)OCCCCCCOC(=O)OCCCn1c(=O)c2cc3c(=O)n(*)c(=O)c3cc2c1=O (repeat unit),36.00 °C
4,*c1ccc(Nc2ccc(Nc3ccc(S(*)(=O)=O)cc3)cc2)cc1 (repeat unit),145.00 °C
5,*CC(*)c1ccc(C(=O)c2ccc(C)cc2)cc1 (repeat unit) [Poly(4-p-toluoylstyrene)],98.92 ± 0.1 °C
6,*/C(C)=C(/*)CCCCCCC (repeat unit),160.00 °C
7,*C1C2CC(C(=O)OCCc3ccc(N(c4ccccc4)c4cccc5ccccc45)cc3)C(C2)C1* (repeat unit),333.00 °C
8,*Nc1ccc(C(c2ccc(NC(=O)c3ccc(-c4ccc(C(*)=O)c(C)c4)cc3C)cc2)(C(F)(F)F)C(F)(F)F)cc1 (repeat unit),289.00 °C
9,*CC(*)(C#N)C(=O)OCC(C)C (repeat unit),51.00 °C
10,*CC(CCl)O* (repeat unit) [Poly(epichlorohydrin)],-22.22 ± 1.5 °C
11,*c1ccc(Cc2ccc(N3C(=O)C4CCC(C5CCC6C(=O)N(*)C(=O)C6C5)CC4C3=O)cc2)cc1 (repeat unit),260.00 °C
12,*Oc1ccc(NC(=O)c2ccc(-c3ccc(C(=O)Nc4ccc(Oc5ccc(C(C)(C)c6ccc(*)cc6)cc5)cc4)c(C)c3)cc2C)cc1 (repeat unit),230.00 °C
13,*CCCCCCOc1ccc(CCc2ccc(O*)cc2C)cc1 (repeat unit),17.90 °C
14,*c1cccc(S(=O)(=O)NCCCCCNS(*)(=O)=O)c1 (repeat unit),74.00 °C
15,*CC(*)(C)C(=O)OC1COC(CP(=O)(OCC)OCC)OC1 (repeat unit),101.50 °C
16,*CCCCCCCCOc1ccc(C(c2ccc(O*)cc2)(C(F)(F)F)C(F)(F)F)cc1 (repeat unit),27.80 °C
17,*CCCCCCCCNC(=O)CC(=O)N* (repeat unit),55.00 °C
18,*c1ccc2c(c1)C(=O)N(c1ccc(-c3ccc(N4C(=O)c5ccc(C(*)(C(F)(F)F)C(F)(F)F)cc5C4=O)c(OC(=O)/C=C/c4ccccc4)c3)cc1OC(=O)/C=C/c1ccccc1)C2=O (repeat unit),181.00 °C
19,*c1ccc(C(=O)OCCCCCCCCOc2ccc(/C=C3\CCC/C(=C\c4ccc(OCCCCCCCCOC(=O)c5ccc(-c6nnc(*)o6)cc5)cc4)C3=O)cc2)cc1 (repeat unit),59.00 °C
20,*CCCCCCOc1c(OC)cc(/C=C/c2ccc(/C=C/c3cc(OC)c(O*)c(OC)c3)cc2)cc1OC (repeat unit),90.00 °C
21,*/C=C/C1CC(*)C2C(=O)N(c3ccccc3C)C(=O)C12 (repeat unit),248.00 °C
22,*OP(=O)(Oc1ccccc1)Oc1ccc(C(C)(C)c2ccc(*)cc2)cc1 (repeat unit),74.50 °C
23,*O[Si](C)(C)CC[Si](C)(C)Oc1c(C)cc(-c2cc(C)c(*)c(C)c2)cc1C (repeat unit),55.00 °C
24,*CC(*)(C)C(=O)OCCCCOc1ccc(/N=N/c2ccc(C#N)cc2)cc1 (repeat unit),80.00 °C

row,Structure (SMILES),glass transition temperature
1,*CC(*)OC(=O)OCCC(F)(F)C(F)(F)C(F)(F)C(F)(F)C(F)(F)C(F)(F)F (repeat unit),37.00 °C
2,*CCCCCOC(=O)c1ccccc1C(=O)[O][Pb][O]C(=O)c1ccccc1C(=O)OCCCCCOC(=O)Nc1ccc(C)c(NC(=O)O*)c1 (repeat unit),-11.30 °C
3,*c1ccc(-c2ccc(N(*)c3ccc(C)cc3)cc2)cc1 (repeat unit),85.00 °C
4,*Oc1ccc(Oc2ccc(C(=O)c3cccc(NC(=O)c4ccc(C(=O)Nc5cccc(C(=O)c6ccc(*)cc6)c5)cc4)c3)cc2)cc1 (repeat unit),210.00 °C
5,*c1ccc(-c2cc(CCCCCCCC)c(-c3ccc(-c4ccc(-c5sc(-c6ccc([Si](*)(CCCC)CCCC)s6)cc5CCCCCCCC)s4)s3)s2)s1 (repeat unit),-1.00 °C
6,*CCCCCCOC(=O)c1ccc2cc(C(=O)O*)ccc2c1 (repeat unit),64.00 °C
7,*CC(=O)Nc1ccc(NC(=O)c2ccc3c(c2)C(=O)N(*)C3=O)cc1 (repeat unit),292.00 °C
8,*c1ccc(C(*)C)cc1 (repeat unit),93.00 °C
9,*[CH2][Ge]([CH3])([CH3])[CH2]c1cocc1* (repeat unit),-28.00 °C
10,*c1ccc(Oc2ccc(C(=O)c3ccc(Oc4ccc(-c5cc(*)n(-c6ccccc6)n5)cc4)cc3)cc2)cc1 (repeat unit),205.00 °C
11,*Oc1ccc(Oc2ccc(S(=O)(=O)c3ccc(*)cc3)cc2)cc1 (repeat unit),210.00 °C
12,*Oc1ccc(OC(=O)CCCCC(*)=O)cc1 (repeat unit),90.00 °C
13,*CC(*)(F)C(=O)OC(C(F)(F)F)C(F)(F)F (repeat unit),102.00 °C
14,*C(=O)Nc1ccc(Oc2ccc(C(C)(C)c3ccc(Oc4ccc(NC(=O)c5ccc6c(c5)C(=O)N(c5ccc(-c7sc(-c8ccc(N9C(=O)c%10ccc(*)cc%10C9=O)cc8)c(-c8ccccc8)c7-c7ccccc7)cc5)C6=O)cc4)cc3)cc2)cc1 (repeat unit),287.00 °C
15,*CCCCCCOc1ccc(-c2cc(-c3ccc(-c4ccccc4)cc3)c(-c3ccc(NC(=O)c4ccc(C(=O)Nc5ccc(-c6c(-c7ccc(-c8ccccc8)cc7)cc(-c7ccc(O*)cc7)cc6-c6ccc(-c7ccccc7)cc6)cc5)cc4)cc3)c(-c3ccc(-c4ccccc4)cc3)c2)cc1 (repeat unit),121.50 °C
16,*c1ccc(Oc2cccc(N3C(=O)c4ccc(-c5ccc6c(c5)C(=O)N(*)C6=O)cc4C3=O)c2)cc1 (repeat unit),259.00 °C
17,*CC(*)OCCCCCCCCCC (repeat unit) [Poly(vinyl n-decyl ether) ],-76 ± 8.5 °C
18,*OP(=O)(Oc1ccccc1)Oc1c(Cl)c(Cl)c(*)c(Cl)c1Cl (repeat unit),79.00 °C
19,*Oc1ccc(CC(NC(=O)CCc2ccc(OC(=O)CCC(*)=O)cc2)C(=O)OCCCC)cc1 (repeat unit),67.00 °C
20,*OC(=O)Nc1ccc(Cc2ccc(NC(=O)OC3CC4CC(*)CC(C3)O4)cc2)cc1 (repeat unit),200.00 °C
21,*CCCCCCOP(=O)(/N=N/c1ccc(C(=O)c2ccc(/N=N/P(=O)(O*)OC)cc2)cc1)OC (repeat unit),31.00 °C
22,*CCCCNC(=O)Cc1ccc(C(=O)N*)cc1 (repeat unit),84.00 °C
23,*c1ccc(C(=O)OCCCCCCCCOc2ccc(/C=C/C(=O)/C=C/c3ccc(OCCCCCCCCOC(=O)c4ccc(-c5nnc(*)o5)cc4)cc3)cc2)cc1 (repeat unit),59.00 °C
24,*C(=O)CCC1(CCC(=O)N2CCN(*)CC2)c2ccccc2-c2ccccc21 (repeat unit),145.00 °C
